Assay results as given in patent US20250098679A1, “HERBICIDAL PYRIDONE DERIVATIVES” (SYNGENTA CROP PROTECTION AG, priority 2021, published 2025).

What was measured:
Assay type in all cases: in vivo
[1] = test system: Echinochloa crus-galli (ECHCG); experiment: Pre-emergence Test, Echinochloa crus-galli (ECHCG); conditions: evaluated after 13 days
Zea mays (ZEAMX) [2] = experiment: Pre-emergence Test, Zea mays (ZEAMX); conditions: evaluated after 13 days
[3] = test system: Ipomoea hederacea (IPOHE); experiment: Pre-emergence Test, Ipomoea hederacea (IPOHE); conditions: evaluated after 13 days
[4] = test system: Amaranthus palmeri (AMAPA); experiment: Pre-emergence Test, Amaranthus palmeri (AMAPA); conditions: evaluated after 13 days
[5] = test system: Amaranthus retoflexus (AMARE); experiment: Pre-emergence Test, Amaranthus retoflexus (AMARE); conditions: evaluated after 13 days
Setaria faberi (SETFA) = experiment: Post-emergence Test, Setaria faberi (SETFA); set-up: key to percentage damage caused to the plant, SETFA (five-point scale): 5=81-100%, 4=61-80%, 3=41-60%, 2=21-40%, 1=0-20% damage; conditions: 1000 g/ha, evaluated after 13 days
Method in brief: (§1)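 Tested at 1000 g/ha unless otherwise stated. Plants were held at 24/16 °C day/night with a 14 h light period. Percent damage was read at 13 days and reported in five bands.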

[6] = test system: Echinochloa crus-galli (ECHCG); experiment: Post-emergence Test, Echinochloa crus-galli (ECHCG); set-up: key to percentage damage caused to the plant, ECHCG (five-point scale): 5=81-100%, 4=61-80%, 3=41-60%, 2=21-40%, 1=0-20% damage; conditions: evaluated after 13 days; for percentage damage caused to the plant, ECHCG (five-point scale): 250 g/Ha
Method in brief: as §1

Zea mays (ZEAMX) [7] = experiment: Post-emergence Test, Zea mays (ZEAMX); set-up: key to percentage damage caused to the plant, ZEAMX (five-point scale): 5=81-100%, 4=61-80%, 3=41-60%, 2=21-40%, 1=0-20% damage; conditions: evaluated after 13 days
Method in brief: as §1

[8] = test system: Ipomoea hederacea (IPOHE); experiment: Post-emergence Test, Ipomoea hederacea (IPOHE); set-up: key to percentage damage caused to the plant, IPOHE (five-point scale): 5=81-100%, 4=61-80%, 3=41-60%, 2=21-40%, 1=0-20% damage; conditions: evaluated after 13 days
Method in brief: as §1

[9] = test system: Amaranthus palmeri (AMAPA); experiment: Post-emergence Test, Amaranthus palmeri (AMAPA); set-up: key: 5=81-100%, 4=61-80%, 3=41-60%, 2=21-40%, 1=0-20% damage; conditions: evaluated after 13 days
Method in brief: as §1

[10] = test system: Amaranthus retoflexus (AMARE); experiment: Post-emergence Test, Amaranthus retoflexus (AMARE); set-up: key to percentage damage caused to the plant, AMARE (five-point scale): 5=81-100%, 4=61-80%, 3=41-60%, 2=21-40%, 1=0-20% damage; conditions: evaluated after 13 days
Method in brief: as §1

SMILES | Pre-emergence Test ECHCG, percentage damage caused to the plant (five-point scale) ([1]; 250 g/Ha (*)) | Pre-emergence Test ECHCG, percentage damage caused to the plant (five-point scale) ([1]; 1000 g/ha) | Pre-emergence Test ZEAMX, percentage damage caused to the plant (five-point scale) (Zea mays (ZEAMX) [2]; 250 g/Ha (*)) | Pre-emergence Test ZEAMX, percentage damage caused to the plant (five-point scale) (Zea mays (ZEAMX) [2]; 1000 g/ha) | Pre-emergence Test IPOHE, percentage damage caused to the plant (five-point scale) ([3]; 250 g/Ha (*)) | Pre-emergence Test IPOHE, percentage damage caused to the plant (five-point scale) ([3]; 1000 g/ha) | Pre-emergence Test AMAPA, percentage damage caused to the plant (five-point scale) ([4]; 250 g/Ha (*)) | Pre-emergence Test AMAPA, percentage damage caused to the plant (five-point scale) ([4]; 1000 g/ha) | Pre-emergence Test AMARE, percentage damage caused to the plant (five-point scale) ([5]; 1000 g/ha) | percentage damage caused to the plant, SETFA (five-point scale) (Setaria faberi (SETFA)) | percentage damage caused to the plant, ECHCG (five-point scale) [6] | percentage damage caused to the plant, ZEAMX (five-point scale) (Zea mays (ZEAMX) [7]; 250 g/Ha) | percentage damage caused to the plant, ZEAMX (five-point scale) (Zea mays (ZEAMX) [7]; 1000 g/ha) | percentage damage caused to the plant, IPOHE (five-point scale) ([8]; 250 g/Ha) | percentage damage caused to the plant, IPOHE (five-point scale) ([8]; 1000 g/ha) | percentage damage caused to the plant, AMAPA (five-point scale) ([9]; 250 g/Ha) | percentage damage caused to the plant, AMAPA (five-point scale) ([9]; 1000 g/ha) | percentage damage caused to the plant, AMARE (five-point scale) ([10]; 250 g/Ha) | percentage damage caused to the plant, AMARE (five-point scale) ([10]; 1000 g/ha) | Pre-emergence Test AMARE, percentage damage caused to the plant (five-point scale) ([5]; 250 g/Ha (*)) | other results
CCn1c(Cn2ccc(C3CC3)n2)cc(=O)c(C(=O)O)c1-c1ccc(Cl)c(Cl)c1 [Compound 179, 6-[(3-cyclopropylpyrazol-1-yl)methyl]-2-(3,4-dichlorophenyl)-1-ethyl-4-oxo-pyridine-3-carboxylic acid] | 1 (1=0-20%) | 5 (5=81-100%) | 0 | 5 (5=81-100%) | 0 | 4 (4=61-80%) | 0 | 2 (2=21-40%) | 4 (4=61-80%) | 4 (4=61-80%) | 3 (3=41-60%) | 3 (3=41-60%) | 4 (4=61-80%) | 4 (4=61-80%) | 4 (4=61-80%) | 1 (1=0-20%) | 3 (3=41-60%) | 0 | 3 (3=41-60%) | – | –
CCn1c(Cn2ccc(/C=N/OC)n2)cc(=O)c(C(=O)O)c1-c1ccc(Cl)c(Cl)c1 [Compound 204, 2-(3,4-dichlorophenyl)-1-ethyl-6-[[3-[(E)-methoxyiminomethyl]pyrazol-1-yl]methyl]-4-oxo-pyridine-3-carboxylic acid] | 2 (2=21-40%) | 4 (4=61-80%) | 1 (1=0-20%) | 2 (2=21-40%) | 2 (2=21-40%) | 4 (4=61-80%) | 1 (1=0-20%) | 1 (1=0-20%) | 1 (1=0-20%) | – | – | – | – | – | – | – | – | – | – | 0 | Post-emergence Test SETFA, percentage damage caused to the plant (five-point scale) (Setaria faberi (SETFA)): 4 (4=61-80%); Post-emergence Test ECHCG, percentage damage caused to the plant (five-point scale) ([6]; 250 g/Ha (*)): 3 (3=41-60%); Post-emergence Test ZEAMX, percentage damage caused to the plant (five-point scale) (Zea mays (ZEAMX) [7]; 250 g/Ha (*)): 2 (2=21-40%); Post-emergence Test ZEAMX, percentage damage caused to the plant (five-point scale) (Zea mays (ZEAMX) [7]; 1000 g/ha): 3 (3=41-60%); Post-emergence Test IPOHE, percentage damage caused to the plant (five-point scale) ([8]; 250 g/Ha (*)): 2 (2=21-40%); Post-emergence Test IPOHE, percentage damage caused to the plant (five-point scale) ([8]; 1000 g/ha): 3 (3=41-60%); Post-emergence Test AMAPA, percentage damage caused to the plant (five-point scale) ([9]; 250 g/Ha (*)): 1 (1=0-20%); Post-emergence Test AMAPA, percentage damage caused to the plant (five-point scale) ([9]; 1000 g/ha): 1 (1=0-20%); Post-emergence Test AMARE, percentage damage caused to the plant (five-point scale) ([10]; 250 g/Ha (*)): 1 (1=0-20%); Post-emergence Test AMARE, percentage damage caused to the plant (five-point scale) ([10]; 1000 g/ha): 2 (2=21-40%)
CCn1c(Cn2ccc(C(C)=O)n2)cc(=O)c(C(=O)O)c1-c1ccc(Cl)c(Cl)c1 [Compound 180, 6-[(3-acetylpyrazol-1-yl)methyl]-2-(3,4-dichlorophenyl)-1-ethyl-4-oxo-pyridine-3-carboxylic acid] | – | 1 (1=0-20%) | – | 0 | – | 0 | – | 1 (1=0-20%) | 2 (2=21-40%) | 1 (1=0-20%) | 1 (1=0-20%) | 0 | 1 (1=0-20%) | 0 | 1 (1=0-20%) | 0 | 0 | 0 | 1 (1=0-20%) | – | –
CCn1c(Cn2ccc([N+](=O)[O-])n2)cc(=O)c(C(=O)O)c1-c1ccc(Cl)c(Cl)c1 [Compound 178, 2-(3,4-dichlorophenyl)-1-ethyl-6-[(3-nitropyrazol-1-yl)methyl]-4-oxo-pyridine-3-carboxylic acid] | 1 (1=0-20%) | 2 (2=21-40%) | 0 | 0 | 0 | 0 | 0 | 0 | 0 | 2 (2=21-40%) | 1 (1=0-20%) | 0 | 0 | 1 (1=0-20%) | 0 | 1 (1=0-20%) | 1 (1=0-20%) | 0 | 1 (1=0-20%) | 0 | –
CCn1c(Cn2ccc(OCC(F)F)n2)cc(=O)c(C(=O)O)c1-c1ccc(Cl)c(Cl)c1 [Compound 165, 2-(3,4-dichlorophenyl)-6-[[3-(2,2-difluoroethoxy)pyrazol-1-yl]methyl]-1-ethyl-4-oxo-pyridine-3-carboxylic acid] | 4 (4=61-80%) | 5 (5=81-100%) | 1 (1=0-20%) | 4 (4=61-80%) | 3 (3=41-60%) | 4 (4=61-80%) | 0 | 2 (2=21-40%) | 1 (1=0-20%) | 4 (4=61-80%) | 3 (3=41-60%) | 2 (2=21-40%) | 3 (3=41-60%) | 4 (4=61-80%) | 4 (4=61-80%) | 1 (1=0-20%) | 2 (2=21-40%) | 1 (1=0-20%) | 3 (3=41-60%) | 0 | –
CCn1c(Cn2nc(C(F)F)cc2C)cc(=O)c(C(=O)O)c1-c1ccc(Cl)c(Cl)c1 [Compound 187, 2-(3,4-dichlorophenyl)-6-[[3-(difluoromethyl)-5-methyl-pyrazol-1-yl]methyl]-1-ethyl-4-oxo-pyridine-3-carboxylic acid] | – | 1 (1=0-20%) | – | 1 (1=0-20%) | – | 3 (3=41-60%) | – | 0 | 0 | 1 (1=0-20%) | 2 (2=21-40%) | 0 | 1 (1=0-20%) | 1 (1=0-20%) | 4 (4=61-80%) | 0 | 1 (1=0-20%) | 0 | 1 (1=0-20%) | – | –
